Results from ChEMBL document CHEMBL1157132, “Hydrolyzable tannins of tamaricaceous plants. III. Hellinoyl- and macrocyclic-type ellagitannins from Tamarix nilotica” (J Nat Prod, 2010).

How the values were obtained:
[1] = Cytotoxicity against human HPC cells after 48 hrs by MTT assay; format: cell-based
HSC-3 = assay: Cytotoxicity against human HSC3 cells after 48 hrs by MTT assay; format: functional; conditions: HSC-3, 48 h
HSC-2 = assay: Cytotoxicity against human HSC2 cells after 48 hrs by MTT assay; format: functional; conditions: HSC-2, 48 h
HL-60 = assay: Cytotoxicity against human HL60 cells after 48 hrs by MTT assay; format: functional; conditions: HL-60, 48 h
[2] = Cytotoxicity against human HPLF cells after 48 hrs by MTT assay; format: cell-based
HSC-4 = assay: Cytotoxicity against human HSC4 cells after 48 hrs by MTT assay; format: functional; conditions: HSC-4, 48 h
[3] = Cytotoxicity against human HGF cells after 48 hrs by MTT assay; format: cell-based

SMILES: O=C(O[C@@H]1O[C@@H]2COC(=O)c3cc(O)c(O)c(O)c3-c3c(cc(O)c(O)c3O)C(=O)O[C@H]2[C@H](OC(=O)c2cc(O)c(O)c(O)c2)[C@H]1OC(=O)c1cc(O)c(O)c(O)c1Oc1cc2c(c(O)c1O)Oc1cc(cc(O)c1O)C(=O)O[C@@H]1O[C@@H]3COC(=O)c4cc(O)c(O)c(O)c4-c4c(cc(O)c(O)c4O)C(=O)O[C@H]3[C@H](OC(=O)c3cc(O)c(O)c(O)c3)[C@H]1OC2=O)c1cc(O)c(O)c(O)c1 [HIRTELLIN B]
- CC50 at 48 h [1]: 78.5 µM
- CC50 (HSC-3): 99.3 µM
- CC50 (HSC-2): 91.7 µM
- CC50 (HL-60): 8.71 µM
- CC50 at 48 h [2]: 293 µM
- CC50 (HSC-4): 74 µM
- CC50 at 48 h [3]: 177 µM

SMILES: O=C(O[C@@H]1O[C@@H]2COC(=O)c3cc(O)c(O)c(O)c3-c3c(cc(O)c(O)c3O)C(=O)O[C@H]2[C@H](OC(=O)c2cc(O)c(O)c(O)c2)[C@H]1OC(=O)c1cc(O)c(O)c(O)c1Oc1cc2c(c(O)c1O)Oc1cc(cc(O)c1O)C(=O)O[C@@H]1O[C@H](CO)[C@@H](O)[C@H](OC(=O)c3cc(O)c(O)c(O)c3)[C@H]1OC2=O)c1cc(O)c(O)c(O)c1 [NILOTININ D8]
- CC50 at 48 h [1]: 278 µM
- CC50 (HSC-3): 48.3 µM
- CC50 (HSC-2): 32.3 µM
- CC50 (HL-60): 22.9 µM
- CC50 at 48 h [2]: 358 µM
- CC50 (HSC-4): 54.3 µM
- CC50 at 48 h [3]: 318 µM

SMILES: O=C1O[C@@H]2O[C@@H]3COC(=O)c4cc(O)c(O)c(O)c4-c4c(cc(O)c(O)c4O)C(=O)O[C@H]3[C@H](OC(=O)c3cc(O)c(O)c(O)c3)[C@H]2OC(=O)c2cc(Oc3c(C(=O)O)cc(O)c(O)c3O)c(O)c(O)c2Oc2cc1cc(O)c2O [NILOTININ M4]
- CC50 at 48 h [1]: 263 µM
- CC50 (HSC-3): 57 µM
- CC50 (HSC-2): 35 µM
- CC50 (HL-60): 30.6 µM
- CC50 at 48 h [2]: 361 µM
- CC50 (HSC-4): 62 µM
- CC50 at 48 h [3]: 325 µM

SMILES: O=C(O)c1cc(O)c(O)c(Oc2c(C(=O)O[C@H]3[C@H](OC(=O)c4cc(O)c(O)c(O)c4)O[C@@H]4COC(=O)c5cc(O)c(O)c(O)c5-c5c(cc(O)c(O)c5O)C(=O)O[C@H]4[C@@H]3OC(=O)c3cc(O)c(O)c(O)c3O)cc(O)c(O)c2O)c1 [REMURIN A]
- CC50 at 48 h [1]: 170 µM
- CC50 (HSC-3): 51 µM
- CC50 (HSC-2): 31.3 µM
- CC50 (HL-60): 18.4 µM
- CC50 at 48 h [2]: 373 µM
- CC50 (HSC-4): 48 µM
- CC50 at 48 h [3]: 218 µM

SMILES: O=C(O)c1cc(O)c(O)c(Oc2c(C(=O)O[C@@H]3[C@@H](OC(=O)c4cc(O)c(O)c(O)c4O)[C@@H]4OC(=O)c5cc(O)c(O)c(O)c5-c5c(cc(O)c(O)c5O)C(=O)OC[C@H]4O[C@H]3O)cc(O)c(O)c2O)c1 [REMURIN B]
- CC50 at 48 h [1]: 255 µM
- CC50 (HSC-3): 63.3 µM
- CC50 (HSC-2): 32.3 µM
- CC50 (HL-60): 41.7 µM
- CC50 at 48 h [2]: 375 µM
- CC50 (HSC-4): 60 µM
- CC50 at 48 h [3]: 337 µM

SMILES: O=C1O[C@@H]2O[C@@H]3COC(=O)c4cc(O)c(O)c(O)c4-c4c(cc(O)c(O)c4O)C(=O)O[C@H]3[C@H](OC(=O)c3cc(O)c(O)c(O)c3)[C@H]2OC(=O)c2cc(Oc3c(C(=O)O[C@@H]4[C@@H](OC(=O)c5cc(O)c(O)c(O)c5)[C@@H]5OC(=O)c6cc(O)c(O)c(O)c6-c6c(cc(O)c(O)c6O)C(=O)OC[C@H]5O[C@H]4O)cc(O)c(O)c3O)c(O)c(O)c2Oc2cc1cc(O)c2O [TAMARIXININ A]
- CC50 at 48 h [1]: 199 µM
- CC50 (HSC-3): 54.3 µM
- CC50 (HSC-2): 29.3 µM
- CC50 (HL-60): 30.8 µM
- CC50 at 48 h [2]: 353 µM
- CC50 (HSC-4): 59.3 µM
- CC50 at 48 h [3]: 274 µM
